These compounds were tested against T1, human PAH with the R408W mutation (Homo sapiens, UniProt P00439, R408W) (assay: Cell Based Phenylalanine Flux Assay). Settings: A375 cells expressing human R408W PAH; 24 hrs compound incubation; 13C-Tyrosine by LC-MS; average where tested multiple times; read-out: AC50.
T1 construct: expressed in transfected cells
T1 sequence (P00439 1-452 R408W): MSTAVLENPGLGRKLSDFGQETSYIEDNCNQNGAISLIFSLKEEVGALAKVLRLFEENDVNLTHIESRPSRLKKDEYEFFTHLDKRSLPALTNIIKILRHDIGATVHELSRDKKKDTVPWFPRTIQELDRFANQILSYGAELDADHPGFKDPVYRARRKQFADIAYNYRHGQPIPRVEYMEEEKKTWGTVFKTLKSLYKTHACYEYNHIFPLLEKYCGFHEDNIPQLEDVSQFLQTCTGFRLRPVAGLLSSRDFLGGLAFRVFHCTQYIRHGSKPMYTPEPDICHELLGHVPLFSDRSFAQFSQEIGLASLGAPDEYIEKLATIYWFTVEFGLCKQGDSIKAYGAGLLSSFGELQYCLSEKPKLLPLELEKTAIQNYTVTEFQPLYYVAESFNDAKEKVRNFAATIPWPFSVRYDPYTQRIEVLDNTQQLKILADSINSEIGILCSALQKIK

SMILES | AC50 [nM]
Cn1nc(Cl)nc1C(=O)N1CCc2[nH]cnc2[C@@H]1c1nc2ccccc2s1 [Example 1938, (R)-(4-(benzo[d]thiazol-2-yl)-6,7-dihydro-1H-imidazo[4,5-c]pyridin-5(4H)-yl)(3-chloro-1-methyl-1H-1,2,4-triazol-5-yl)methanone] | 1000 to 5000
O=C(c1nnc(-c2cnn(S(=O)(=O)C3CC3)c2)o1)N1CCc2[nH]cnc2[C@H]1c1nc2ccccc2s1 [Example 1939] | 500 to 1000
O=C(c1nnc(-c2cnn(S(=O)(=O)C3CC3)c2)o1)N1CCc2[nH]cnc2[C@@H]1c1nc2ccccc2s1 [Example 1940, (R)-(4-(benzo[d]thiazol-2-yl)-6,7-dihydro-1H-imidazo[4,5-c]pyridin-5(4H)-yl)(5-(1-(cyclopropylsulfonyl)-1H-pyrazol-4-yl)-1,3,4-oxadiazol-2-yl)methanone] | 1000 to 5000
Cc1n[nH]cc1-c1nnc(C(=O)N2CCc3[nH]cnc3[C@H]2c2nc3ccccc3s2)o1 [Example 1941] | < 500
Cc1cc(-c2nnc(C(=O)N3CCc4[nH]cnc4[C@@H]3c3nc4ccccc4s3)o2)nn1C [Example 1943, (R)-(4-(benzo[d]thiazol-2-yl)-6,7-dihydro-1H-imidazo[4,5-c]pyridin-5(4H)-yl)(5-(1,5-dimethyl-1H-pyrazol-3-yl)-1,3,4-oxadiazol-2-yl)methanone] | 1000 to 5000
Cc1cc(-c2nnc(C(=O)N3CCc4[nH]cnc4[C@H]3c3nc4ccccc4s3)o2)nn1C [Example 1944] | 500 to 1000
Cn1nccc1-c1nnc(C(=O)N2CCc3[nH]cnc3[C@@H]2c2nc3ccccc3s2)o1 [Example 1946, (R)-(4-(benzo[d]thiazol-2-yl)-6,7-dihydro-1H-imidazo[4,5-c]pyridin-5(4H)-yl)(5-(1-methyl-1H-pyrazol-5-yl)-1,3,4-oxadiazol-2-yl)methanone] | 1000 to 5000
Cc1cnn(C)c1-c1nnc(C(=O)N2CCc3[nH]cnc3[C@@H]2c2nc3ccccc3s2)o1 [Example 1948, (R)-(4-(benzo[d]thiazol-2-yl)-6,7-dihydro-1H-imidazo[4,5-c]pyridin-5(4H)-yl)(5-(1,4-dimethyl-1H-pyrazol-5-yl)-1,3,4-oxadiazol-2-yl)methanone] | 1000 to 5000
Cc1nc(C2(O)CC2)oc1C(=O)N1CCc2[nH]cnc2[C@H]1c1nc2c(F)cccc2s1 [Example 1949, (S)-(4-(4-fluorobenzo[d]thiazol-2-yl)-6,7-dihydro-1H-imidazo[4,5-c]pyridin-5(4H)-yl)(2-(1-hydroxycyclopropyl)-4-methyloxazol-5-yl)methanone] | 500 to 1000
CC(C)n1ncc(C(=O)N2CCc3[nH]cnc3[C@H]2c2nc3c(F)cccc3s2)c1Cl [Example 1951] | 500 to 1000
CC(C)n1ncc(C(=O)N2CCc3[nH]cnc3[C@@H]2c2nc3c(F)cccc3s2)c1Br [Example 1954, (R)-(5-bromo-1-isopropyl-1H-pyrazol-4-yl)(4-(4-fluorobenzo[d]thiazol-2-yl)-6,7-dihydro-1H-imidazo[4,5-c]pyridin-5(4H)-yl)methanone] | 1000 to 5000
Cn1nc(Cl)nc1C(=O)N1CCc2[nH]cnc2[C@@H]1c1nc2c(F)cccc2s1 [Example 1956, (R)-(3-chloro-1-methyl-1H-1,2,4-triazol-5-yl)(4-(4-fluorobenzo[d]thiazol-2-yl)-6,7-dihydro-1H-imidazo[4,5-c]pyridin-5(4H)-yl)methanone] | 1000 to 5000
CCn1ncnc1C(=O)N1CCc2[nH]cnc2[C@@H]1c1nc2ccccc2s1 [Example 1957, (R)-(4-(benzo[d]thiazol-2-yl)-6,7-dihydro-1H-imidazo[4,5-c]pyridin-5(4H)-yl)(1-ethyl-1H-1,2,4-triazol-5-yl)methanone] | < 500
CCn1ncnc1C(=O)N1CCc2[nH]cnc2[C@H]1c1nc2ccccc2s1 [Example 1958] | < 500
CCn1ncnc1C(=O)N1CCc2[nH]cnc2[C@@H]1c1nc2c(F)cccc2s1 [Example 1960, (R)-(1-ethyl-1H-1,2,4-triazol-5-yl)(4-(4-fluorobenzo[d]thiazol-2-yl)-6,7-dihydro-1H-imidazo[4,5-c]pyridin-5(4H)-yl)methanone] | 1000 to 5000
C[C@H](O)c1nc(C(F)F)c(C(=O)N2CCc3[nH]cnc3[C@H]2c2nc3c(F)cccc3s2)o1 [Example 1961, (4-(difluoromethyl)-2-((S)-1-hydroxyethyl)oxazol-5-yl) ((S)-4-(4-fluorobenzo[d]thiazol-2-yl)-6,7-dihydro-1H-imidazo[4,5-c]pyridin-5(4H)-yl)methanone] | < 500
CC(C)(O)c1nc(Cl)c(C(=O)N2CCc3[nH]cnc3[C@@H]2c2nc3ccccc3s2)o1 [Example 1964, (R)-(4-(benzo[d]thiazol-2-yl)-6,7-dihydro-1H-imidazo[4,5-c]pyridin-5(4H)-yl)(4-chloro-2-(2-hydroxypropan-2-yl)oxazol-5-yl)methanone] | 1000 to 5000
O=C(c1nnc(-c2c[nH]nc2C(F)(F)F)o1)N1CCc2[nH]cnc2[C@H]1c1nc2ccccc2s1 [Example 1965] | 500 to 1000
O=C(c1nnc(-c2c[nH]nc2C(F)(F)F)o1)N1CCc2[nH]cnc2[C@@H]1c1nc2ccccc2s1 [Example 1966, (R)-(4-(benzo[d]thiazol-2-yl)-6,7-dihydro-1H-imidazo[4,5-c]pyridin-5(4H)-yl)(5-(3-(trifluoromethyl)-1H-pyrazol-4-yl)-1,3,4-oxadiazol-2-yl)methanone] | 1000 to 5000
O=C(c1cnn(CC(F)(F)F)c1Cl)N1CCc2[nH]cnc2[C@H]1c1nc2c(F)cccc2s1 [Example 1967, (S)-(5-chloro-1-(2,2,2-trifluoroethyl)-1H-pyrazol-4-yl)(4-(4-fluorobenzo[d]thiazol-2-yl)-6,7-dihydro-1H-imidazo[4,5-c]pyridin-5(4H)-yl)methanone] | < 500
O=C(c1cnn(CC2CC2)c1Cl)N1CCc2[nH]cnc2[C@@H]1c1nc2c(F)cccc2s1 [Example 1972, (R)-(5-chloro-1-(cyclopropylmethyl)-1H-pyrazol-4-yl)(4-(4-fluorobenzo[d]thiazol-2-yl)-6,7-dihydro-1H-imidazo[4,5-c]pyridin-5(4H)-yl)methanone] | 1000 to 5000

Continued, values first:

AC50 [nM] | SMILES
1000 to 5000 | Cc1n[nH]cc1-c1nnc(C(=O)N2CCc3[nH]cnc3[C@@H]2c2nc3ccccc3s2)o1 [Example 1942, (R)-(4-(benzo[d]thiazol-2-yl)-6,7-dihydro-1H-imidazo[4,5-c]pyridin-5(4H)-yl)(5-(3-methyl-1H-pyrazol-4-yl)-1,3,4-oxadiazol-2-yl)methanone]
< 500 | Cn1nccc1-c1nnc(C(=O)N2CCc3[nH]cnc3[C@H]2c2nc3ccccc3s2)o1 [Example 1945]
< 500 | Cc1cnn(C)c1-c1nnc(C(=O)N2CCc3[nH]cnc3[C@H]2c2nc3ccccc3s2)o1 [Example 1947]
> 5000 | Cc1nc(C2(O)CC2)oc1C(=O)N1CCc2[nH]cnc2[C@@H]1c1nc2c(F)cccc2s1 [Example 1950, (R)-(4-(4-fluorobenzo[d]thiazol-2-yl)-6,7-dihydro-1H-imidazo[4,5-c]pyridin-5(4H)-yl)(2-(1-hydroxycyclopropyl)-4-methyloxazol-5-yl)methanone]
1000 to 5000 | CC(C)n1ncc(C(=O)N2CCc3[nH]cnc3[C@@H]2c2nc3c(F)cccc3s2)c1Cl [Example 1952, (R)-(5-chloro-1-isopropyl-1H-pyrazol-4-yl)(4-(4-fluorobenzo[d]thiazol-2-yl)-6,7-dihydro-1H-imidazo[4,5-c]pyridin-5(4H)-yl)methanone]
500 to 1000 | CC(C)n1ncc(C(=O)N2CCc3[nH]cnc3[C@H]2c2nc3c(F)cccc3s2)c1Br [Example 1953]
< 500 | Cn1nc(Cl)nc1C(=O)N1CCc2[nH]cnc2[C@H]1c1nc2c(F)cccc2s1 [Example 1955]
< 500 | CCn1ncnc1C(=O)N1CCc2[nH]cnc2[C@H]1c1nc2c(F)cccc2s1 [Example 1959]
1000 to 5000 | C[C@H](O)c1nc(C(F)F)c(C(=O)N2CCc3[nH]cnc3[C@@H]2c2nc3c(F)cccc3s2)o1 [Example 1962, (4-(difluoromethyl)-2-((S)-1-hydroxyethyl)oxazol-5-yl)((R)-4-(4-fluorobenzo[d]thiazol-2-yl)-6,7-dihydro-1H-imidazo[4,5-c]pyridin-5(4H)-yl)methanone]
< 500 | CC(C)(O)c1nc(Cl)c(C(=O)N2CCc3[nH]cnc3[C@H]2c2nc3ccccc3s2)o1 [Example 1963]
1000 to 5000 | O=C(c1cnn(CC(F)(F)F)c1Cl)N1CCc2[nH]cnc2[C@@H]1c1nc2c(F)cccc2s1 [Example 1968, (R)-(5-chloro-1-(2,2,2-trifluoroethyl)-1H-pyrazol-4-yl)(4-(4-fluorobenzo[d]thiazol-2-yl)-6,7-dihydro-1H-imidazo[4,5-c]pyridin-5(4H)-yl)methanone]
500 to 1000 | O=C(c1cnn(C2CC2)c1Cl)N1CCc2[nH]cnc2[C@H]1c1nc2c(F)cccc2s1 [Example 1969]
1000 to 5000 | O=C(c1cnn(C2CC2)c1Cl)N1CCc2[nH]cnc2[C@@H]1c1nc2c(F)cccc2s1 [Example 1970, (R)-(5-chloro-1-cyclopropyl-1H-pyrazol-4-yl)(4-(4-fluorobenzo[d]thiazol-2-yl)-6,7-dihydro-1H-imidazo[4,5-c]pyridin-5(4H)-yl)methanone]
500 to 1000 | O=C(c1cnn(CC2CC2)c1Cl)N1CCc2[nH]cnc2[C@H]1c1nc2c(F)cccc2s1 [Example 1971, (S)-(5-chloro-1-(cyclopropylmethyl)-1H-pyrazol-4-yl)(4-(4-fluorobenzo[d]thiazol-2-yl)-6,7-dihydro-1H-imidazo[4,5-c]pyridin-5(4H)-yl)methanone]
< 500 | O=C(c1cnn(CC(F)(F)F)c1C(F)F)N1CCc2[nH]cnc2[C@H]1c1nc2ccccc2s1 [Example 1973]
